Results from PMC6433232, “Targeting mitochondria in cancer therapy could provide a basis for the selective anti-cancer activity” (PLoS ONE, 2019).
“And” between values parts separate entries of the source, which are not always exact repeats. Equal entries are not always repeated. Where two headings read alike, the source gives them in different places.

System: primary acute myeloid leukemia (AML) cells obtained from patients
Assay: Kinase inhibitor library screening with and without NSC130362, primary AML cells
Type: cell-based, Human
[1] = ratio of EC50 for inhibitor to EC50 for inhibitor/NSC130362 combination, NSC130362 10 μM, Screen N 2
[2] = ratio of EC50 for inhibitor to EC50 for inhibitor/NSC130362 combination, NSC130362 10 μM, Screen N 1
[3] = ratio of EC50 for inhibitor to EC50 for inhibitor/NSC130362 combination, NSC130362 10 μM, Screen N 3

SMILES	EC50 decrease, fold (Screen N 2) [1]	EC50 decrease, fold (Screen N 1) [2]	EC50 decrease, fold (Screen N 3) [3]	EC50 decrease, fold (Screen N 1)	EC50 decrease, fold (Screen N 2)	EC50 decrease, fold (Screen N 3)
Nc1ncnc2c1nc(Cl)n2[C@@H]1O[C@H](CO)[C@@H](O)[C@H]1O [8-cl-Adenosine]	1.0 fold	–	–	–	–	–
C=CCNC1=C2C[C@@H](C)C[C@H](OC)[C@H](O)[C@@H](C)/C=C(\C)[C@H](OC(N)=O)[C@@H](OC)/C=C\C=C(/C)C(=O)NC(=CC1=O)C2=O [17-AAG (Tanespimycin)]	12.1 fold	10.6 fold	612.9 fold	–	–	–
Cc1[nH]nc2ccc(-c3cncc(OC[C@@H](N)Cc4ccccc4)c3)cc12 [A-674563]	1.2 fold	3.1 fold	6.2 fold	–	–	–
CC1(C)CCC(CN2CCN(c3ccc(C(=O)NS(=O)(=O)c4ccc(NCC5CCOCC5)c([N+](=O)[O-])c4)c(Oc4cnc5[nH]ccc5c4)c3)CC2)=C(c2ccc(Cl)cc2)C1 [ABT-199 (BH3 mimetic)]	1.0 fold	7.4 fold	9.4 fold	–	–	–
CN(C)CC[C@H](CSc1ccccc1)Nc1ccc(S(=O)(=O)NC(=O)c2ccc(N3CCN(Cc4ccccc4-c4ccc(Cl)cc4)CC3)cc2)cc1[N+](=O)[O-] [ABT-737]	1.0 fold	5.4 fold	0.000857 fold	–	–	–
Cc1ccccc1C(C(=O)NC1CCCCC1)N(C(=O)Cn1ccnc1C)c1cccc(F)c1 (centres unmarked) [AGI-5198]	1.0 fold	1.0 fold	0.16 fold	–	–	–
O=C(Nc1cccc(C(F)(F)F)c1)Nc1cc(S(=O)(=O)NC2CC2)ccc1-c1ccsc1 [AGI-6780]	1.0 fold	1.0 fold	17.0 fold	–	–	–
Cc1[nH]c2ccc(F)cc2c1-c1nc2c3cccnc3c3ncccc3c2[nH]1 [APTO-253]	1.0 fold	–	–	–	–	–
O=C(NC1CCNCC1)c1[nH]ncc1NC(=O)c1c(Cl)cccc1Cl [AT7519]	2.2 fold	9.7 fold	1.1 fold	–	–	–
Oc1ccc([C@H]2COc3cc(O)ccc3C2)cc1 [AUS-131]	1.0 fold	–	–	–	–	–
Cc1cc(Nc2nc(N[C@@H](C)c3ncc(F)cn3)ncc2Cl)n[nH]1 [AZD1480]	1.0 fold	497.3 fold	0.365 fold	–	–	–
CN(C)C/C=C/C(=O)Nc1cc2c(Nc3ccc(F)c(Cl)c3)ncnc2cc1O[C@H]1CCOC1 [Afatinib (BIBW-2992)]	–	–	–	0.5 fold	1.2 fold	18.4 fold
COc1cc(Nc2ncc3c(n2)-c2ccc(Cl)cc2C(c2c(F)cccc2OC)=NC3)ccc1C(=O)O [Alisertib (MLN8237)]	1.0 fold	1.0 fold	0.3 fold	–	–	–
Nc1ncn([C@@H]2O[C@H](CO)[C@@H](O)[C@H]2O)c(=O)n1 [Azacytidine]	1.0 fold	1.1 fold	266.4 fold	–	–	–
Cn1c(=O)n(-c2ccc(C(C)(C)C#N)cc2)c2c3cc(-c4cnc5ccccc5c4)ccc3ncc21 [BEZ235]	0.7 fold	4.0 fold	8.8 fold	–	–	–
Cc1ccc2nc(NCCN)c3ncc(C)n3c2c1 [BMS-345541]	1.0 fold	1.2 fold	0.01 fold	–	–	–
CCN(CCO)CCCOc1ccc2c(Nc3cc(CC(=O)Nc4cccc(F)c4)[nH]n3)ncnc2c1 [Barasertib (AZD1152-HQPA)]	1.0 fold	1.0 fold	642.8 fold	–	–	–
CC(C)(C)c1ccc(S(=O)(=O)/C=C/C#N)cc1 [Bay 11-7085]	1.0 fold	69.0 fold	221.9 fold	–	–	–
COc1cc(Nc2c(C#N)cnc3cc(OCCCN4CCN(C)CC4)c(OC)cc23)c(Cl)cc1Cl [Bosutinib (SKI-606)]	1.0 fold	15.8 fold	29.6 fold	–	–	–

SMILES	EC50 decrease, fold (Screen N 2) [1]	EC50 decrease, fold (Screen N 1) [2]	EC50 decrease, fold (Screen N 3) [3]	EC50 decrease, fold (Screen N 1)	EC50 decrease, fold (Screen N 2)	EC50 decrease, fold (Screen N 3)
COc1cc(N2CCC(N3CCN(C)CC3)CC2)ccc1Nc1ncc(Cl)c(Nc2ccccc2P(C)(C)=O)n1 [Brigatininb (AP-26113)]	–	0.0179 fold	1.8 fold	–	–	–
Cc1c[nH]c(-c2cnc(NCCNc3ccc(C#N)cn3)nc2-c2ccc(Cl)cc2Cl)n1 [CHIR-99021]	1.0 fold	1.0 fold	1.0 fold	–	–	–
O=C(NOCC1CC1)c1ccc(F)c(F)c1Nc1ccc(I)cc1Cl [CI-1040 (PD184352)]	1.0 fold	0.9 fold	0.0667 fold	–	–	–
Cc1noc2c1-c1ccccc1C(c1ccc(Cl)cc1)=N[C@H]2CC(N)=O [CPI-0610]	0.8 fold	–	–	–	–	–
N#CCNC(=O)c1ccc(-c2ccnc(Nc3ccc(N4CCOCC4)cc3)n2)cc1 [CYT387]	1.0 fold	0.117 fold	320.1 fold	–	–	–
COc1cc2nccc(Oc3ccc(NC(=O)C4(C(=O)Nc5ccc(F)cc5)CC4)cc3)c2cc1OC [Cabozantinib (XL-184)]	1.0 fold	3.2 fold	0.259 fold	–	–	–
C=CC(=O)Nc1cc2c(Nc3ccc(F)c(Cl)c3)ncnc2cc1OCCCN1CCOCC1 [Canertinib (CI-1033)]	0.7 fold	2.8 fold	424.3 fold	–	–	–
COc1cc2c(Oc3ccc4[nH]c(C)cc4c3F)ncnc2cc1OCCCN1CCCC1 [Cediranib (AZD2171)]	1.0 fold	8.3 fold	0.00538 fold	–	–	–
O=C(c1ccc(F)c(F)c1Nc1ccc(I)cc1F)N1CC(O)([C@@H]2CCCCN2)C1 [Combimetinib (GDC-0973)]	0.6 fold	–	–	–	–	–
C[C@@H](Oc1cc(-c2cnn(C3CCNCC3)c2)cnc1N)c1c(Cl)ccc(F)c1Cl [Crizotinib (PF-2341066)]	–	–	–	11.4 fold and 6.3 fold	1.0 fold	–
Nc1ccn([C@@H]2O[C@H](CO)[C@@H](O)[C@@H]2O)c(=O)n1 [Cytarabine]	1.0 fold	28.6 fold	0.132 fold	–	–	–
C[C@H](NC(=O)Cc1cc(F)cc(F)c1)C(=O)N[C@@H]1C(=O)N(C)c2ccccc2-c2ccccc21 [DBZ]	1.0 fold	0.951 fold	0.374 fold	–	–	–
Cc1nc(Nc2ncc(C(=O)Nc3c(C)cccc3Cl)s2)cc(N2CCN(CCO)CC2)n1 [Dasatinib]	1.0 fold	–	–	–	–	–
Cc1ccc(-n2nc(C(C)(C)C)cc2NC(=O)Nc2ccc(OCCN3CCOCC3)c3ccccc23)cc1 [Doramapimod (BIRB 796)]	1.0 fold	0.15 fold	511.2 fold	–	–	–
CN1CCN(c2ccc3nc(-c4c(N)c5c(F)cccc5[nH]c4=O)[nH]c3c2)CC1 [Dovitinib (CHIR-258)]	1.0 fold	2.6 fold	96.7 fold	–	–	–
CN(NC(=O)CC(=O)NN(C)C(=S)c1ccccc1)C(=S)c1ccccc1 [Elesclomol]	302.2 fold	1.1 fold	1.1 fold	–	–	–
c1cn2cc(-c3ccc4cn[nH]c4c3)nc(Nc3ccc(N4CCOCC4)cc3)c2n1 [Entospletinib (GS-9973)]	1.0 fold	16.8 fold	0.131 fold	–	–	–
C#Cc1cccc(Nc2ncnc3cc(OCCOC)c(OCCOC)cc23)c1 [Erlotinib]	1.0 fold	–	–	–	–	–
CN1CC[C@H](c2c(O)cc(O)c3c(=O)cc(-c4ccccc4Cl)oc23)[C@H](O)C1 [Flavopiridol]	1.1 fold	2.0 fold	0.0683 fold	–	–	–
